From US20240003879A1, “METHODS FOR DIAGNOSIS AND MONITORING OF TOXIC EPIDERMAL NECROLYSIS” (INSERM (INSTITUT NATIONAL DE LA SANTÉ ET DE LA RECHERCHE …, priority 2020, published 2024) come the findings set out here.

The subject of assay [1] is Skw3 control transductant 17D (Abacavir-allergic donor). The assay can be described thus: TCR-transductant stimulation assay, control transductant 17D. Conditions: control 17D, 24 h, heterologous EBV-transformed B cells, no drug 1.4. Format: cell-based, human.
Source text: Skw3 cell lines (Leibniz Institute DSMZ, Brunswick, Germany, (50)) were transduced as described previously (51). […] The resulting retroviruses were used to transduce the TCR-defective Skw3 cell line, which also expresses the human CD8 coreceptor. The TCR-transduced cells outgrowing in selective medium were picked, and the expression of the correct TCR α and β was further assessed by flow cytometry, using a FACS-Canto-I device (BD-Biosciences, San Jose, CA, USA). The transduced cells with stable TCR expression were selected for assessment of reactivity and specificity, which was measured by TCR-induced CD69 expression. Skw3 cell lines expressing the cognate TCR α and β chains were cocultured with autologous EBV-transformed B-lymphoblastoid cell lines (52) at 1:2 ratio at 37° C. Tested drugs were added to the cocultures with the indicated concentrations. After 24 h, cells were stained with anti-human CD3 (Biolegend) and anti-human CD69 (Biolegend) and analysed by flow cytometry. […] Experiments were repeated at least 2 times. […] Heterologous EBV-transformed B cells were also used to stimulate control transductants.
For assay [2], the system named is TCRαβ Skw3 transfectant C1 (TCR of top clone of patient TEN-3). Format: cell-based, human. Conditions: 24 h with autologous EBV-transformed B cells, no drug 2.3; for % of CD69 expression in CD3+ transfectants, Concentration 2: Allopurinol/Oxypurinol 62.5 μg/ml, Sulfamethoxazole 100 μg/ml; for % of CD69 expression in CD3+ transfectants, Concentration 3: Allopurinol/Oxypurinol 250 μg/ml, Sulfamethoxazole 200 μg/ml. From the text:
(§1) In brief, rearranged human variable TCR α- and β genes identified by TCR sequencing were synthesized by custom gene synthesis (GeneUniversal, Newark, Delaware, USA) and cloned into retroviral pMSCV Vector (Takara Bio USA Inc, Mountain View, California, USA) containing puromycin and neomycin resistance genes respectively.
(§2) Levels of CD69 expression were monitored in 10,000 CD3^+ events. Experiments were repeated at least 2 times.
(§3) Skw3 cell lines engineered for the expression of TCRs bearing Vα and Vβ chains from top clones found in patients TEN-3,-7,-10 and -15 were stimulated in vitro with EBV-transformed B cells in presence of graded doses of different drugs, or left unpulsed. […] Results from control transductants generated from Abacavir- (17D), Allopurinol-(AnWeAl) or Sulfamethoxazole- (UNO H13) allergic donors (53) (51) (7) are also shown. Bold and underlined values indicate >2 or >1.5 CD69 expression fold increase versus unpulsed cultures.

For assay [3], the system named is Skw3 control transductant AnWe A1 (Allopurinol-allergic donor). The assay can be described thus: TCR-transductant stimulation assay, control transductant AnWe A1. Conditions: 24 h, heterologous EBV-transformed B cells, no drug 4.3; for % of CD69 expression in CD3+ transfectants, Concentration 2: Allopurinol/Oxypurinol 62.5 μg/ml; for % of CD69 expression in CD3+ transfectants, Concentration 3: Allopurinol/Oxypurinol 250 μg/ml. The format is cell-based, human.
Source text: as §1, §2, §3

The test system of assay [4] is TCRαβ Skw3 transfectant C4 (TCR of top clone of patient TEN-15). The format is cell-based, human. Conditions: for % of CD69 expression in CD3+ transfectants, Concentration 1 / % of CD69 expression in CD3+ transfectants, Concentration 2 / % of CD69 expression in CD3+ transfectants, Concentration 3: transfectant C4, 24 h; for % of CD69 expression in CD3+ transfectants, Concentration 1: Levofloxacin (no drug 6.0) / Metronidazole (no drug 6.3) 25 μg/ml; for % of CD69 expression in CD3+ transfectants, Concentration 2: Levofloxacin (no drug 6.0) / Metronidazole (no drug 6.3) 50 μg/ml; for % of CD69 expression in CD3+ transfectants, Concentration 3: Levofloxacin (no drug 6.0) / Metronidazole (no drug 6.3) 100 μg/ml; for CD69 expression response of transduced Skw3 cells to drug (in words): transductant from patient TEN-15.
Source text: Skw3 cell lines (Leibniz Institute DSMZ, Brunswick, Germany, (50)) were transduced as described previously (51). […] The resulting retroviruses were used to transduce the TCR-defective Skw3 cell line, which also expresses the human CD8 coreceptor. The TCR-transduced cells outgrowing in selective medium were picked, and the expression of the correct TCR α and β was further assessed by flow cytometry, using a FACS-Canto-I device (BD-Biosciences, San Jose, CA, USA). The transduced cells with stable TCR expression were selected for assessment of reactivity and specificity, which was measured by TCR-induced CD69 expression. Skw3 cell lines expressing the cognate TCR α and β chains were cocultured with autologous EBV-transformed B-lymphoblastoid cell lines (52) at 1:2 ratio at 37° C. Tested drugs were added to the cocultures with the indicated concentrations. After 24 h, cells were stained with anti-human CD3 (Biolegend) and anti-human CD69 (Biolegend) and analysed by flow cytometry. […] Experiments were repeated at least 2 times. […] Then, the productive rearranged TCRα and TCRβ chains were transduced into Skw3 cells, a TCR defective lymphoma line (28) (data not shown). After verification of sustained and stable TCR expression (data not shown), transduced Skw3 cells were stimulated with the culprit (or control) drug in presence of autologous Epstein Barr Virus (EBV)-transformed B cells generated from patient's PBMCs. The following day, we measured CD69 expression at the surface of Skw3 cells, as marker for TCR stimulation. […] Heterologous EBV-transformed B cells were also used to stimulate control transductants.

Assay [5] relates to cytotoxic CD8+CD38+ T cells. The assay can be described thus: TEN preclinical model: NSG mice transferred with PBMCs from a TEN patient and given lamotrigine; daratumumab evaluation. Format: in vivo, mouse. Conditions: for depletion of already expanded CD38+ cells (CD8+CD38+ T cells) / depletion of cytotoxic CD8+CD38+Granzyme B+Granulysin+ T cell subset: curative mode: injections from day 29; for depletion of already expanded CD38+ cells (CD8+CD38+ T cells): blood (FIG. 16); for depletion of cytotoxic CD8+CD38+Granzyme B+Granulysin+ T cell subset: blood (FIG. 17); for formation/expansion of cytotoxic CD8+CD38+Granzyme B+Granulysin+ T cell subset: blood (FIG. 15A); for formation/expansion of CD4+CD38+ and CD8+CD38+ T cells: preventive mode: i.p. 200 mg twice weekly from day 4, blood and spleen, throughout the protocol, versus control isotype (FIG. 13); for depletion of cytotoxic cells expressing the TCRVbeta7.1+ chain (CD8+Vbeta7.1+ T cells): spleen at day 31, versus isotype-treated controls (FIG. 12). The procedure:
(§4) NSG animals were adoptively transferred at day 0 with 1.10^6 millions PBMCs collected from a TEN patient, and successively administrated with lamotrigine (the culprit drug; every day, from day 4. In parallel, NSG mice were injected i.p. with […] of daratumumab or a control isotype twice weekly, starting mAb injections from day 4 (preventive mode). Results depict the kinetic of human CD8+Vbeta7.1+ T cell expansion measured by flow cytometry in the spleen of NSG mice at day 31. Results are expressed as mean and individual % of Vbeta7.1+ cell fraction among total CD8+ T cells. Ten mice per group were used in this experiment. Of note, 3.2% of Vbeta7.1+ cells were detected in CD8+ T cells at the time of cell transfer (day 0).
as §4, with “CD4+CD38+/− and CD8+CD38+/−” for “CD8+Vbeta7.1+”, “blood” for “spleen”, “throughout the protocol.” for “at day 31.”, “number” for “%”, “CD38+(A) and CD38− (B) cells/mL blood.” for “Vbeta7.1+ cell fraction among total CD8+ T cells.”, “experiment.” for “experiment. Of note, 3.2% of Vbeta7.1+ cells were detected in CD8+ T cells at the time of cell transfer (day 0).”
(§5) NSG animals were adoptively transferred at day 0 with 1.10^6 millions PBMCs collected from a TEN patient, and successively administrated with lamotrigine (the culprit drug; or vehicle by oral gavage, every day, from day 4. In parallel, NSG mice were injected i.p. with […] of daratumumab or a control isotype twice weekly, starting mAb injections from day 4 (preventive mode). Results depict the kinetic of human CD4+ and CD8+ T cell expansion measured by flow cytometry in the blood of NSG mice throughout the protocol. Results are expressed as mean and individual number of CD4+ and CD8+ T cells/mL blood. Ten mice per group were used in this experiment.
as §5, with “drug; 0.1 mg/kg/day),” for “drug; or vehicle by oral gavage,”, “human cytotoxic CD8+CD38+/−GranzymeB+Granulysin+” for “human CD4+ and CD8+”, “of CD8+CD38+GranzymeB+Granulysin+” for “of CD4+”, “and CD8+CD38+GranzymeB+Granulysin+ cells/mL blood (A). Details for total CD8+GranzymeB+Granulysin+” for “and CD8+”, “T cells are also shown (B).” for “T cells/mL blood.”
NSG animals were adoptively transferred at day 0 with 1.10^6 millions PBMCs collected from a TEN patient, and successively administrated with lamotrigine (the culprit drug; every day, from day 4. In parallel, NSG mice were injected i.p. with […] of daratumumab or a control isotype twice weekly, starting mAb treatment from day 4 (preventive mode) or from day 29 (curative mode). Results depict the kinetic of human CD8+CD38+/− T cell expansion measured by flow cytometry in the blood of NSG mice throughout the protocol. Results are expressed as mean and individual % of CD38+ and CD38− fractions among total CD8+ T cells. Five mice per group were used in this experiment. […]

Another assay has as its system human CD38+CD8+ T cells. Nature of the assay: Model of graft versus host versus disease (GVHD): NGS mice reconstituted with PBMCs from a healthy donor. The format is in vivo, mouse. From the text:
NGS mice were reconstituted with 10×10^6 PBMCs from a healthy donor, and treated by two-weekly injections of an anti-CD38+ mAb (Daratumumab, at 100 or 300 microg/mouse). Control group received PBS. Results depict the percentage +/−SD of CD38+ fraction among human CD8+ T cells present in the spleen, as evaluated by flow cytometry 28 days after PBMCs injection.
NGS mice were reconstituted with 10×10^6 PBMCs from a healthy donor, and treated by two-weekly injections of an anti-CD38+ mAb (Daratumumab, at 100 or 300 microg/mouse). Control group received PBS. The percentage of humanization was measured by flow cytometry at day 5 and at day 12 after PBMC injection. It was calculated by dividing the percentage of human blood CD45+ cells/the percentage of total (mouse+human) blood CD45+ cells.
To this end, NGS mice were reconstituted with 10×10^6 peripheral blood mononuclear cells (PBMCs) from a healthy donor, and treated by two-weekly injections of daratumumab (at 100 or 300 microg/mouse). Control group received PBS. Reconstitution is generally assessed by measuring the ratio of humanization (calculated by dividing the % of human blood CD45+ cells/the % of […]). A high ratio of humanization (>50-60%) classically correlates with the appearance of GVHD symptoms, approximately 1 month after transfer.

The mark [6] stands for this setting: 300 microg/mouse, 2 times a week.

“Also recorded” adds a separate entry of the source. Like-named read-outs stand apart in the source and are kept apart here.

Consider `Nc1nc(NC2CC2)c2ncn([C@H]3C=C[C@@H](CO)C3)c2n1` [Abacavir], for which the “% of CD69 expression in CD3+ transfectants, Concentration 1” value (from here on “% of CD69 expression … Concentration 1”) in assay [1] (Abacavir 1 μg/ml, Pantoprazole 12.5 μg/ml) came out at 93.2%. Also, the “% of CD69 expression in CD3+ transfectants, Concentration 2” value (“% of CD69 expression … Concentration 2” for short) in assay [1] (Abacavir 10 μg/ml, Pantoprazole 25 μg/ml) came to 88.9%. In addition, the “% of CD69 expression in CD3+ transfectants, Concentration 3” value (shortened to “% of CD69 expression … Concentration 3”) in assay [1] (Abacavir 20 μg/ml, Pantoprazole 50 μg/ml) worked out at 93.1%.
On to `Oc1ncnc2[nH]ncc12` [Allopurinol], for which, in assay [2], the “% of CD69 expression … Concentration 2” value amounted to 2.2% and the “% of CD69 expression … Concentration 3” value came out at 3.05%. Besides, in assay [3], the “% of CD69 expression … Concentration 2” value is reported as 17.1% and the “% of CD69 expression … Concentration 3” value is given as 26.4%.
`C[C@H]1COc2c(N3CCN(C)CC3)c(F)cc3c(=O)c(C(=O)O)cn1c23` [Levofloxacin]: in assay [4], the “% of CD69 expression … Concentration 1” value stood at 5.6%; the “% of CD69 expression … Concentration 2” value is reported as 5.4%; the “% of CD69 expression … Concentration 3” value is 4.4%.
For the molecule `Cc1ncc([N+](=O)[O-])n1CCO` [Metronidazole], in assay [4], the “CD69 expression response of transduced Skw3 cells to drug (in words)” value is “failed to respond”; the “% of CD69 expression … Concentration 1” value worked out at 5.7%; the “% of CD69 expression … Concentration 2” value is recorded as 5.4%; the “% of CD69 expression … Concentration 3” value is given as 6.0%. In addition, in assay [4] (listed as metronidazole), the “CD69 expression response of transduced Skw3 cells to drug (in words)” value is given as “failed to detect robust CD69+ expression”.
Turning to `O=c1[nH]c(=O)c2c[nH]nc2[nH]1` [Oxypurinol], in assay [2], the “% of CD69 expression … Concentration 2” value worked out at 22.9% and the “% of CD69 expression … Concentration 3” value is recorded as 39.6%. Moreover, in assay [3], the “% of CD69 expression … Concentration 2” value is listed as 5.0% and the “% of CD69 expression … Concentration 3” value is on record as 5.75%.
Turning to `Cc1cc(NS(=O)(=O)c2ccc(N)cc2)no1` [Sulfamethoxazole], in assay [2], the “% of CD69 expression … Concentration 2” value turned out to be 1.3% and the “% of CD69 expression … Concentration 3” value is 1.4%.
In the case of Daratumumab, the “depletion of already expanded CD38+ cells (CD8+CD38+ T cells)” value in assay [5] is reported as “acutely depleted the CD38+ cells that have already expanded”; in assay [5] (listed as Daratumamub) it was “efficiently depleted”. Further, the “depletion of cytotoxic CD8+CD38+Granzyme B+Granulysin+ T cell subset” value was “acutely depleted” in assay [5] and “efficiently depleted” in assay [5] (listed as Daratumamub). Besides, the “expansion of T cell subsets which do not express CD38 marker” value in assay [5] (preventive mode, from day 4 (FIG. 13B)) is given as “did not avoid the progressive expansion of some T cell subsets”. Moreover, the “formation/expansion of cytotoxic CD8+CD38+Granzyme B+Granulysin+ T cell subset” value in assay [5] (preventive mode, from day 4) is “preventing the formation of cytotoxic CD8+CD38+Granzyme B+Granulysin+ T cell subset”; in assay [5] (preventive mode, from day 4, listed as Daratumamub) it was “strongly inhibited the expansion”. The “accumulation of cytotoxic T cells (total CD8+GranzymeB+Granulysin+)” value in assay [5] (preventive mode, from day 4, blood (FIG. 15B)) is on record as “severely impaired the accumulation of cytotoxic T cells”. In addition, the “global T cell expansion (CD4+ and CD8+ T cells/mL blood)” value in assay [5] (preventive mode, from day 4, versus control isotype (FIG. 14)) was “Lower expansion; also recorded: dramatically delayed and impaired the global T cell expansion”. For the same molecule, the “formation/expansion of CD4+CD38+ and CD8+CD38+ T cells” value in assay [5] was “efficiently and extensively prevented the formation of CD4+CD38+ and CD8+CD38+ T cells”; in assay [5] (listed as Daratumamub), “blocked the expansion”. The “depletion of cytotoxic cells expressing the TCRVbeta7.1+ chain (CD8+Vbeta7.1+ T cells)” value was “strong depletion” in assay [5] (preventive mode) and “preferentially depleted” in assay [5] (preventive mode, listed as Daratumamub). In the assay on human CD38+CD8+ T cells (setting [6]), the “GVHD development, higher regimen” value is recorded as “failed to prevent GVDH development”. In addition, the “T cell expansion, higher regimen” value in the assay on human CD38+CD8+ T cells (setting [6]) is on record as “transiently inhibited T cell expansion”. Besides, the “expansion of human cells (ratio of humanization)” value is “transiently inhibited the expansion of human cells” in the assay with human CD38+CD8+ T cells (day 12, 7 days after the initial daratumumab injection, blood (FIG. 8)) and “inhibition was lost” with human CD38+CD8+ T cells (day 19, 14 days after the initial daratumumab injection). Moreover, in the assay with human CD38+CD8+ T cells (day 28, two-weekly injections, 100 or 300 microg/mouse), the “development of the GVHD” value is on record as “failed to hamper the development of the GVHD”. For the same molecule, the “human CD38+CD8+ T cell levels in blood” value in the assay on human CD38+CD8+ T cells (murine GVHD model) is recorded as “reduction of human CD8+CD38+ T cell levels in blood; also recorded: reduction of human CD38+CD8+ T cells levels in blood”. Besides, the “depletion of CD38+ cells (CD38+ fraction among human CD8+ T cells)” value with human CD38+CD8+ T cells (two-weekly injections, 100 or 300 microg/mouse, spleen, flow cytometry, 28 days after PBMCs injection (FIG. 7), preliminary experiments) was “depleted CD38+ cells”.
